Source: patent publication US20080293727A1, “Novel sulfonamide inhibitors of aspartyl protease” (priority 1992, published 2008)

Molecular target: HIV-1 protease (Human immunodeficiency virus type 1 group M subtype B, UniProt P04585)
Assay: Inhibition constants against HIV-1 protease (method of Pennington et al.)
Assay type: biochemical
Conditions: HIV-1 protease; read-out: Ki value
Description: We measured the inhibition constants of the compounds listed in Table VII against HIV-1 protease using the above-cited method of Pennington et al.

`CC(C)CN(C[C@@H](O)[C@H](Cc1ccccc1)NC(=O)O[C@H]1CCOC1)S(=O)(=O)c1cccc(S(N)(=O)=O)c1` [Compound 112, Benzene-1,3-disulfonic acid 1-amide 3-((2 syn,3S)-2-hydroxy-4-phenyl-3-(3-(S)-tetrahydrofuran-3-yloxycarbonylamino)-butyl)-isobutyl-amide] showed a Ki of 4 nM.

Molecule `C=CCCOC(=O)N[C@@H](Cc1ccccc1)[C@H](O)CN(CC(C)C)S(=O)(=O)c1ccc(NC(C)=O)cc1` [Compound 36] has a Ki of 19 nM.

`C=CCOC(=O)N[C@@H](Cc1ccccc1)[C@H](O)CN(CC(C)C)S(=O)(=O)c1ccc(Cl)c(Cl)c1` [Compound 81] was tested, and the Ki was 2.3 nM.

In the case of `NC(=O)C[C@H](NC(=O)c1ccc2ccccc2n1)C(=O)N[C@@H](Cc1ccccc1)[C@H](O)CN(Cc1ccccc1)S(=O)(=O)c1cccc(S(N)(=O)=O)c1` [Compound 10, N-1-(1-(S)-Benzyl-3-(benzyl-(3-sulfamoyl-benzenesulfonyl)-amino)-2-(syn)-hydroxy-propyl)-2-((quinoline-2-carbonyl)-amino)-succinamide], the Ki is reported as 4 nM.

For `COc1ccc(S(=O)(=O)N(CC2CCCC2)CC(O)C(Cc2ccccc2)NC(=O)OC2CCNC2)cc1` (stereo not drawn) [Compound 185], the Ki was 3.5 nM.

`CC(=O)Nc1ccc(S(=O)(=O)N(CC(C)C)C[C@@H](O)[C@H](Cc2ccccc2)NC(=O)O[C@H]2CCOC2)cc1` [Compound 48, N-(4-(((2 syn,3S)-2-Hydroxy-4-phenyl-3-((S)-tetrahydrofuran-3-yloxycarbonylamino)-butyl)-isobutyl-sulfamoyl)-phenyl)-acetamide] was tested, and the Ki was 1.4 nM.

Work on `CCC(C)C(NC(=O)OCc1ccccc1)C(=O)NC(Cc1ccccc1)C(O)CN(Cc1ccccc1)S(=O)(=O)Cc1ccccc1` (stereo not drawn) [Compound 186] yielded a Ki of 140 nM.

With `CC(C)CN(C[C@@H](O)[C@H](Cc1ccccc1)NC(=O)O[C@H]1CCOC1)S(=O)(=O)c1cccc(Cl)c1` [Compound 138, 3-Chloro-N-((2 syn,3S)-2-hydroxy-4-phenyl-3-((S)-tetrahydrofuran-3-yloxycarbonylamino)-butyl)-N-isobutyl-benzenesulfonamide] the Ki was 1.4 nM.

Work on `CC(=O)Nc1ccc(COC(=O)N[C@@H](Cc2ccccc2)[C@H](O)CN(CC(C)C)S(=O)(=O)c2ccc(NC(C)=O)cc2)cc1` [Compound 96] yielded a Ki of 8 nM.

With `CC(C)CN(C[C@@H](O)[C@H](Cc1ccccc1)NC(=O)OC(C)(C)C)S(=O)(=O)c1ccc(F)cc1F` [Compound 49] the Ki was 9 nM.

`O=C(N[C@@H](Cc1ccccc1)[C@H](O)CN(CC1CCCC1)S(=O)(=O)c1ccc(O)cc1)O[C@H]1CCOC1` [Compound 169, N-Cyclopentylmethyl-4-hydroxy-N-((2 syn,3S)-2-hydroxy-4-phenyl-3-((S)-tetrahydrofuran-3-yloxycarbonylamino)-butyl)-benzenesulfonamide] was tested, and the Ki was < 0.1 nM.

`CC(C)CN(C[C@@H](O)[C@H](Cc1ccccc1)NC(=O)O[C@H]1CCOC1)S(=O)(=O)c1ccc(OCc2ccccc2)cc1` [Compound 174] showed a Ki of 10 nM.

`CCOC(=O)N[C@@H](Cc1ccccc1)[C@H](O)CN(CC(C)C)S(=O)(=O)c1ccc(F)cc1` [Compound 121] showed a Ki of 2 nM.

Work on `C=CCOC(=O)N[C@@H](Cc1ccccc1)[C@H](O)CN(CC1CCCC1)S(=O)(=O)c1ccc(NC(C)=O)cc1` [Compound 146, N-(4-((3-(Allyloxycarbonylamino)-(2 syn,3S)-2-hydroxy-4-phenyl-butyl)-cyclopentylmethylsulfamoyl)-phenyl)-acetamide] yielded a Ki of 2 nM.

For `CC(C)CN(C[C@@H](O)[C@H](Cc1ccccc1)NS(=O)(=O)N(C)C)S(=O)(=O)c1cccc2nonc12` [Compound 71], the Ki was 470 nM.

`O=C(N[C@@H](Cc1ccccc1)[C@H](O)CN(CC1CCCC1)S(=O)(=O)c1ccc(OC(F)(F)F)cc1)O[C@H]1CCOC1` [Compound 151] was tested, and the Ki was 0.8 nM.

Work on `C=CCOC(=O)N[C@@H](Cc1ccccc1)[C@H](O)CN(CC(C)C)S(=O)(=O)c1ccc(NC(C)=O)cc1` [Compound 27] yielded a Ki of 8 nM.

Molecule `CC(C)CN(C[C@@H](O)[C@H](Cc1ccccc1)NC(=O)O[C@H]1CCOC1)S(=O)(=O)c1ccc(Cl)c(Cl)c1` [Compound 37, 3,4-Dichloro-N-((2 syn,3S)-2-hydroxy-4-phenyl-3-((S)-tetrahydrofuran-3-yloxycarbonylamino)-butyl)-N-isobutyl-benzenesulfonamide] has a Ki of 0.1 nM.

`CC(C)CN(C[C@@H](O)[C@H](Cc1ccccc1)NC(=O)O[C@H]1CCOC1)S(=O)(=O)c1ccc([N+](=O)[O-])cc1` [Compound 167, N-((2 syn,3S)-2-Hydroxy-4-phenyl-3-((S)-tetrahydrofuran-3-yloxycarbonylamino)-butyl)-N-isobutyl-4-nitro-benzenesulfonamide] showed a Ki of 0.45 nM.

`CC(C)(C)OC(=O)N[C@@H](Cc1ccccc1)[C@H](O)CN(CC1CCCC1)S(=O)(=O)c1ccc(Cl)c(Cl)c1` [Compound 84] showed a Ki of 1.4 nM.

With `CC(=O)Nc1ccc(S(=O)(=O)N(CC(C)C)C[C@@H](O)[C@H](Cc2ccccc2)NC(=O)OC(C)C)cc1` [Compound 29] the Ki was 17 nM.

`CC(C)CN(C[C@@H](O)[C@H](Cc1ccccc1)NC(=O)OC(C)(C)C)S(=O)(=O)c1ccc(F)cc1` [Compound 32] gave a Ki of 2.5 nM.

Molecule `COc1ccc(S(=O)(=O)N(CC(C)C)C[C@@H](O)[C@H](Cc2ccccc2)NC(=O)OCc2cccnc2)cc1` [Compound 153] has a Ki of 0.2 nM.

Work on `CC(C)CN(C[C@@H](O)[C@H](Cc1ccccc1)NC(=O)OC[C@@H]1COC(=O)N1)S(=O)(=O)c1ccc(F)cc1` [Compound 109, 4-Fluoro-N-(2-(syn)-hydroxy-3-((2-oxazolidon-(S)-4-yl)-methoxycarbonylamino)-4-(S)-phenyl-butyl)-N-isobutyl-benzenesulfonamide] yielded a Ki of 6 nM.

Molecule `CC(C)CN(C[C@@H](O)[C@H](Cc1ccccc1)NS(=O)(=O)N(C)C)S(=O)(=O)N(C)C` [Compound 72] has a Ki of 4000 nM.

For `O=C(N[C@@H](Cc1ccccc1)[C@H](O)CN(CC1CCCC1)S(=O)(=O)c1ccc([N+](=O)[O-])cc1)O[C@H]1CCOC1` [Compound 170, N-Cyclopentylmethyl-N-((2 syn,3S)-2-hydroxy-4-phenyl-3-((S)-tetrahydrofuran-3-yloxycarbonylamino)-butyl)-4-nitro-benzensulfonamide], the Ki was 0.2 nM.

With `O=C(N[C@@H](Cc1ccccc1)[C@H](O)CN(CC1CCCC1)S(=O)(=O)c1cccnc1)O[C@H]1CCOC1` [Compound 149, Pyridine-3-sulfonic acid cyclopentylmethyl-((2 syn,3S)-2-hydroxy-4-phenyl-3-((S)-tetrahydrofuran-3-yloxycarbonylamino)-butyl)-amide] the Ki was 1.7 nM.

`O=C1N[C@H](COC(=O)N[C@@H](Cc2ccccc2)[C@H](O)CN(CC2CCCC2)S(=O)(=O)c2ccc(Cl)cc2)CO1` [Compound 139, 4-Chloro-N-cyclopentylmethyl-N-(2-(syn)-hydroxy-3-((2-oxazolidon-4-(S)-yl-methyl)-oxycarbonylamino)-4-phenyl-butyl)-benzenesulfonamide] showed a Ki of 1.2 nM.

For `C=C(C)CN(C[C@@H](O)[C@H](Cc1ccccc1)NC(=O)O[C@H]1CCOC1)S(=O)(=O)c1ccc(OC)cc1` [Compound 1006], the Ki was 8 nM.

`Cc1ccc(S(=O)(=O)N(CC(C)C)C[C@@H](O)[C@H](Cc2ccccc2)NC(=O)O[C@H]2CCOC2)cc1` [Compound 165, N-((2 syn,3S)-2-Hydroxy-4-phenyl-3-((syn)-tetrahydrofuran-3-yloxycarbonylamino)-butyl)-N-isobutyl-4-methyl-benzenesulfonamide] gave a Ki of 0.4 nM.
